Assay results: paper PMC11079024, “Identification of a family of species-selective complex I inhibitors as potential anthelmintics” (Nature Communications, 2024)
“And” between values parts separate entries of the source, which are not always exact repeats. Equal values may be shown once. Read-outs that look alike come from different tables or passages of the source.

Target: C. elegans complex II (succinate dehydrogenase) (Caenorhabditis elegans, UniProt O62215+P41956+Q09545)
Experiment: In vitro complex II activity assay, C. elegans mitochondria
Format: biochemical
Settings: for Percent in vitro activity, Complex II (single replicate Rep1-Rep4): individual biological replicates; for IC50: wild-type (N2) mitochondria
Procedure, shortened: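 Mitochondria isolated from adult C. elegans were diluted to 0.2 mg/mL protein and assayed for complex II by the DCIP-coupled method. A600 was read every 30 s over 15 min, with initial linear slope expressed as percent of solvent control. Screening was at 100 μM (≥3 biological replicates), followed by dose-response.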

[1] = dose 0.0001 µM, individual replicates, wild-type C. elegans
[2] = dose 0.0005 µM, individual replicates, wild-type C. elegans
[3] = dose 0.001 µM, individual replicates, wild-type C. elegans
[4] = dose 0.0025 µM, individual replicates, wild-type C. elegans
[5] = dose 0.005 µM, individual replicates, wild-type C. elegans
[6] = dose 0.013 µM, individual replicates, wild-type C. elegans
[7] = dose 0.025 µM, individual replicates, wild-type C. elegans
[8] = dose 0.063 µM, individual replicates, wild-type C. elegans
[9] = dose 0.125 µM, individual replicates, wild-type C. elegans
[10] = dose 0.313 µM, individual replicates, wild-type C. elegans
[11] = dose 0.625 µM, individual replicates, wild-type C. elegans
[12] = dose 1.5 µM, individual replicates, wild-type C. elegans
[13] = dose 3 µM, individual replicates, wild-type C. elegans
[14] = dose 15 µM, individual replicates, wild-type C. elegans
[15] = dose 75 µM, individual replicates, wild-type C. elegans
[16] = 100 µM compound, relative to solvent control, mean (SEM), read-out: % Activity Complex II
[17] = 100 μM of NPD compound, C. elegans mitochondria, 100 µM
[18] = 100 μM of NPD compound, C. elegans mitochondria, mean of four biological replicates, read-out: Percent in vitro activity, Complex II (Mean)

Sequence of C. elegans complex II (succinate dehydrogenase) (P41956 30-182): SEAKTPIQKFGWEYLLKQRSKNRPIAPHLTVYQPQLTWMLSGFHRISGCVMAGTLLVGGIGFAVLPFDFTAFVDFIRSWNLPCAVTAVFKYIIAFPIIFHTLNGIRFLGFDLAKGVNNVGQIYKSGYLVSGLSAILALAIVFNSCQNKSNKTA
Sequence of C. elegans complex II (succinate dehydrogenase) (Q09545 22-298): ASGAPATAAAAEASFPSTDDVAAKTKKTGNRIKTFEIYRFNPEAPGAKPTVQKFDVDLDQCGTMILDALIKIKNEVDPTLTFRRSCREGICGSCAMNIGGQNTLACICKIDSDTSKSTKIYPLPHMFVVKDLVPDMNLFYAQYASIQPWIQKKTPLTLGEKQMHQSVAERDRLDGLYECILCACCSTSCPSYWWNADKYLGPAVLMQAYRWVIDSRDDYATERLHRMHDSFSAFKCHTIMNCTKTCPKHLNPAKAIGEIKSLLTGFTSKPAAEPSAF
Sequence of C. elegans complex II (succinate dehydrogenase) (Q09508 32-646, further chain): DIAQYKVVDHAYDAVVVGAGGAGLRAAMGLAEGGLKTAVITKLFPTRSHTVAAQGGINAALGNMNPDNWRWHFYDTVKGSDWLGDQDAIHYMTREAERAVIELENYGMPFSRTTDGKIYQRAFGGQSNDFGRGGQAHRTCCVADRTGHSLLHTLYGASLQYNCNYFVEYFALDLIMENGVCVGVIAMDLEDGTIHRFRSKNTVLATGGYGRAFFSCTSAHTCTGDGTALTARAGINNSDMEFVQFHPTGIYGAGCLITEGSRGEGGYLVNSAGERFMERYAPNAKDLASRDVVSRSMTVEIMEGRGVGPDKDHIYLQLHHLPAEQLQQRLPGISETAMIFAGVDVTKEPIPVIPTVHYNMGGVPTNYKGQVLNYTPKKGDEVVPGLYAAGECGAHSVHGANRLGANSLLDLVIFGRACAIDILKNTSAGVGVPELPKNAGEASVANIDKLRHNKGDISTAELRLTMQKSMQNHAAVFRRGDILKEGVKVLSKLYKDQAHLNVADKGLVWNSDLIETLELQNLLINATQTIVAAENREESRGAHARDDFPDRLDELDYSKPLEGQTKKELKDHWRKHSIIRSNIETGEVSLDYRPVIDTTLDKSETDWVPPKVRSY
Sequence of C. elegans complex II (succinate dehydrogenase) (O62215 31-145): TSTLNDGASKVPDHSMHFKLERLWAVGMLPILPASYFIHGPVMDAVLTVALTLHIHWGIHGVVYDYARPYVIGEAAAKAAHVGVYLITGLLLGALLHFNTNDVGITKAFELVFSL

O=C(NCCc1ccc(Cl)cc1)c1ccccc1C(F)(F)F [Wact-11]
% Activity Complex II (100 µM compound, relative to solvent control, mean (SEM)): 24.43 (0.62) %
CII Activity (100 μM inhibitor, in vitro activity relative to solvent control, N2 C. elegans mitochondria, Mean): 24.430%
Percent in vitro activity, Complex II (single replicate Rep1-Rep4) (100 μM of NPD compound, C. elegans mitochondria): 25.363% and 20.777% and 26.220%
Percent in vitro activity, Complex II (Mean) (100 μM of NPD compound, C. elegans mitochondria, mean of four biological replicates): 24.431%
percent (%) in vitro complex II activity relative to solvent control (dose 0.0001 µM, Mean of replicates, wild-type C. elegans): 94.900%
percent (%) in vitro complex II activity relative to solvent control [1]: 104.455% and 86.022% and 94.224%
percent (%) in vitro complex II activity relative to solvent control (dose 0.0005 µM, Mean of replicates, wild-type C. elegans): 92.990%
percent (%) in vitro complex II activity relative to solvent control [2]: 105.223% and 78.802% and 94.946%
percent (%) in vitro complex II activity relative to solvent control (dose 0.001 µM, Mean of replicates, wild-type C. elegans): 95.541%
percent (%) in vitro complex II activity relative to solvent control [3]: 97.389% and 94.470% and 94.765%
percent (%) in vitro complex II activity relative to solvent control (dose 0.0025 µM, Mean of replicates, wild-type C. elegans): 86.830%
percent (%) in vitro complex II activity relative to solvent control [4]: 88.172% and 83.871% and 88.448%
percent (%) in vitro complex II activity relative to solvent control (dose 0.005 µM, Mean of replicates, wild-type C. elegans): 71.382%
percent (%) in vitro complex II activity relative to solvent control [5]: 74.194% and 66.667% and 73.285%
percent (%) in vitro complex II activity relative to solvent control (dose 0.013 µM, Mean of replicates, wild-type C. elegans): 42.140%
percent (%) in vitro complex II activity relative to solvent control [6]: 41.167% and 38.863% and 46.390%
percent (%) in vitro complex II activity relative to solvent control (dose 0.025 µM, Mean of replicates, wild-type C. elegans): 24.327%
percent (%) in vitro complex II activity relative to solvent control [7]: 28.111% and 21.045% and 23.827%
percent (%) in vitro complex II activity relative to solvent control (dose 0.063 µM, Mean of replicates, wild-type C. elegans): 7.305%
percent (%) in vitro complex II activity relative to solvent control [8]: 6.298% and 1.536% and 14.079%
percent (%) in vitro complex II activity relative to solvent control (dose 0.125 µM, Mean of replicates, wild-type C. elegans): 1.918%
percent (%) in vitro complex II activity relative to solvent control [9]: 3.226% and 0.000% and 2.527%
percent (%) in vitro complex II activity relative to solvent control (dose 0.313 µM, Mean of replicates, wild-type C. elegans): 0.000%
percent (%) in vitro complex II activity relative to solvent control [10]: 0.000%
percent (%) in vitro complex II activity relative to solvent control (dose 0.625 µM, Mean of replicates, wild-type C. elegans): 2.509%
percent (%) in vitro complex II activity relative to solvent control [11]: 0.000% and 7.527%
percent (%) in vitro complex II activity relative to solvent control (dose 1.5 µM, Mean of replicates, wild-type C. elegans): 0.000%
percent (%) in vitro complex II activity relative to solvent control [12]: 0.000%
percent (%) in vitro complex II activity relative to solvent control (dose 3 µM, Mean of replicates, wild-type C. elegans): 0.717%
percent (%) in vitro complex II activity relative to solvent control [13]: 0.000% and 2.151%
percent (%) in vitro complex II activity relative to solvent control (dose 15 µM, Mean of replicates, wild-type C. elegans): 2.650%
percent (%) in vitro complex II activity relative to solvent control [14]: 0.000% and 6.144% and 1.805%
percent (%) in vitro complex II activity relative to solvent control (dose 37.5 µM, Mean of replicates, wild-type C. elegans): 1.029%
percent (%) in vitro complex II activity relative to solvent control (dose 37.5 µM, individual replicates, wild-type C. elegans): 0.000% and 0.922% and 2.166%
percent (%) in vitro complex II activity relative to solvent control (dose 75 µM, Mean of replicates, wild-type C. elegans): 0.000%
percent (%) in vitro complex II activity relative to solvent control [15]: 0.000%
IC50: 7.1 nM

Cc1cc(O)c2c(c1)O[C@@]1(C)CC[C@H]3C(C)(C)CCC[C@]34CO[C@@H]2[C@H]41 [Siccanin]
remaining activity at 0.0001 µM (dose 0.0001 µM, Mean of replicates, wild-type C. elegans, read-out: percent (%) in vitro complex II activity relative to solvent control): 103%
percent (%) in vitro complex II activity relative to solvent control [1]: 101.370% and 113.242%
remaining activity at 0.0001 µM (dose 0.0001 µM, individual replicates, wild-type C. elegans, read-out: percent (%) in vitro complex II activity relative to solvent control): 95.2%
remaining activity at 0.0005 µM (dose 0.0005 µM, Mean of replicates, wild-type C. elegans, read-out: percent (%) in vitro complex II activity relative to solvent control): 104%
percent (%) in vitro complex II activity relative to solvent control [2]: 86.897% and 113.059% and 111.964%
remaining activity at 0.001 µM (dose 0.001 µM, Mean of replicates, wild-type C. elegans, read-out: percent (%) in vitro complex II activity relative to solvent control): 84.8%
percent (%) in vitro complex II activity relative to solvent control [3]: 69.310% and 87.306% and 97.900%
remaining activity at 0.0025 µM (dose 0.0025 µM, Mean of replicates, wild-type C. elegans, read-out: percent (%) in vitro complex II activity relative to solvent control): 76.6%
percent (%) in vitro complex II activity relative to solvent control [4]: 54.828% and 79.635% and 95.343%
remaining activity at 0.005 µM (dose 0.005 µM, Mean of replicates, wild-type C. elegans, read-out: percent (%) in vitro complex II activity relative to solvent control): 64.8%
percent (%) in vitro complex II activity relative to solvent control [5]: 62.831% and 72.146%
remaining activity at 0.005 µM (dose 0.005 µM, individual replicates, wild-type C. elegans, read-out: percent (%) in vitro complex II activity relative to solvent control): 59.3%
remaining activity at 0.013 µM (dose 0.013 µM, Mean of replicates, wild-type C. elegans, read-out: percent (%) in vitro complex II activity relative to solvent control): 42.5%
percent (%) in vitro complex II activity relative to solvent control [6]: 45.480% and 44.018%
remaining activity at 0.013 µM (dose 0.013 µM, individual replicates, wild-type C. elegans, read-out: percent (%) in vitro complex II activity relative to solvent control): 37.9%
remaining activity at 0.025 µM (dose 0.025 µM, Mean of replicates, wild-type C. elegans, read-out: percent (%) in vitro complex II activity relative to solvent control): 27.5%
percent (%) in vitro complex II activity relative to solvent control [7]: 28.128% and 27.763%
remaining activity at 0.025 µM (dose 0.025 µM, individual replicates, wild-type C. elegans, read-out: percent (%) in vitro complex II activity relative to solvent control): 26.6%
remaining activity at 0.063 µM (dose 0.063 µM, Mean of replicates, wild-type C. elegans, read-out: percent (%) in vitro complex II activity relative to solvent control): 13%
percent (%) in vitro complex II activity relative to solvent control [8]: 17.717% and 11.872%
remaining activity at 0.063 µM (dose 0.063 µM, individual replicates, wild-type C. elegans, read-out: percent (%) in vitro complex II activity relative to solvent control): 9.48%
remaining activity at 0.125 µM (dose 0.125 µM, Mean of replicates, wild-type C. elegans, read-out: percent (%) in vitro complex II activity relative to solvent control): 9.4%
percent (%) in vitro complex II activity relative to solvent control [9]: 1.897% and 15.890% and 10.411%
remaining activity at 0.313 µM (dose 0.313 µM, Mean of replicates, wild-type C. elegans, read-out: percent (%) in vitro complex II activity relative to solvent control): 6.54%
percent (%) in vitro complex II activity relative to solvent control [10]: 4.655% and 12.968% and 2.009%
remaining activity at 0.625 µM (dose 0.625 µM, Mean of replicates, wild-type C. elegans, read-out: percent (%) in vitro complex II activity relative to solvent control): 3.28%
percent (%) in vitro complex II activity relative to solvent control [11]: 3.621% and 6.210%
remaining activity at 1.5 µM (dose 1.5 µM, Mean of replicates, wild-type C. elegans, read-out: percent (%) in vitro complex II activity relative to solvent control): 9.39%
percent (%) in vitro complex II activity relative to solvent control [12]: 5.345% and 10.046% and 12.785%
remaining activity at 3 µM (dose 3 µM, Mean of replicates, wild-type C. elegans, read-out: percent (%) in vitro complex II activity relative to solvent control): 3.77%
percent (%) in vitro complex II activity relative to solvent control [13]: 3.448% and 7.854%
remaining activity at 15 µM (dose 15 µM, Mean of replicates, wild-type C. elegans, read-out: percent (%) in vitro complex II activity relative to solvent control): 1.28%
percent (%) in vitro complex II activity relative to solvent control [14]: 1.461% and 2.374%
remaining activity at 37.5 µM (dose 37.5 µM, Mean of replicates, wild-type C. elegans, read-out: percent (%) in vitro complex II activity relative to solvent control): 0%
remaining activity at 37.5 µM (dose 37.5 µM, individual replicates, wild-type C. elegans, read-out: percent (%) in vitro complex II activity relative to solvent control): 0%
remaining activity at 75 µM (dose 75 µM, Mean of replicates, wild-type C. elegans, read-out: percent (%) in vitro complex II activity relative to solvent control): 1.83%
percent (%) in vitro complex II activity relative to solvent control [15]: 5.480%
IC50: 10.7 nM

C=C(C)[C@H]1Cc2c(ccc3c2O[C@@H]2COc4cc(OC)c(OC)cc4[C@@H]2C3=O)O1 [Rotenone, reference compound]
activity at 100 µM [16]: 106%
activity at 100 µM (100 μM inhibitor, in vitro activity relative to solvent control, N2 C. elegans mitochondria, Mean, read-out: CII Activity): 106%
Percent in vitro activity, Complex II (single replicate Rep1-Rep4) [17]: 120.467% and 95.666% and 95.033% and 112.709%
activity at 100 µM [18]: 106%

COc1cc2c(cc1OC)C(/C=C/c1ccc(N(C)C)cc1)=NCC2 [NPD6303]
activity at 100 µM [16]: 101%
Percent in vitro activity, Complex II (single replicate Rep1-Rep4) [17]: 124.122% and 89.817% and 91.578% and 100.352%
activity at 100 µM [18]: 101%

COc1cc2c(cc1OC)C(c1ccc(-c3ccc(Cl)c(Cl)c3)o1)=NCC2 [NPD3577]
activity at 100 µM [16]: 115%
Percent in vitro activity, Complex II (single replicate Rep1-Rep4) [17]: 133.014% and 126.621% and 103.513% and 97.309%
activity at 100 µM [18]: 115%
